Source: patent US9359378B2, “Substituted oxazolo[3,4-a]pyrazines as pharmaceutcals” (BIOLAB SANUS FARMACÊUTICA LTDA., priority 2014, dated 2016)

Experiments:
Assay type in all cases: biochemical
PDE1B = target: T1, PDE1B (Homo sapiens, UniProt Q01064); test: PDE1B enzyme inhibition (HTRF, cGMP substrate); settings: human recombinant enzyme (Sf9); FIGS. 14 and 15; test concentration not given
T1 construct: host or cells: Sf9
Description: The effects of BL-230 and BL-236 compounds on the activity of PDE1B human enzymes were quantified by measuring the production of guanosine 5′-monophosphate (5′GMP) from cyclic guanosine monophosphate (cGMP), using human recombinant enzyme expressed in Sf9 cells, and the detection method was by using HTRF® (Homogeneous Time Resolved Fluorescence Technology).
The test compound, the reference compound or the water (control) were mixed with 0.07 U from the enzyme PDE1B in a buffer containing 44.4 mM Tris-hydroxymethyl aminomethane hydrochloride (Tris-HCl), 5.28 mM magnesium chloride (MgCl2), 0.88 mM calcium chloride (CaCl2), 2.64 mM dithiothreitol (DTT) and 0.198 U of calmodulin and 0.044% polysorbate 20 (Tween® 20) (pH 7.8). […] The fluorescence acceptor (Dye2 labeled cGMP) and fluorescence donor (anti-cGMP antibody labeled with europium cryptate) were added in the presence of 1 mM 3-isobutyl-1-methylxanthine (IBMX). After 60 minutes, the transfer of fluorescence corresponding to the amount of residual cGMP was measured at λex=337 nm, λem=620 nm and λem=665 nm using a microplate reader (RubyStar, BMG). The enzyme activity was determined by the signal division measured at 665 nm, by the measured signal at 620 nm (right). The results were expressed as a inhibition percentage of the control enzyme activity. […]

PDE10A2 = target: T2, PDE10A2 (Homo sapiens, UniProt Q9Y233); test: PDE10A2 enzyme inhibition (HTRF, cAMP substrate); settings: human recombinant enzyme (Sf9); FIG. 14; test concentration not given
T2 construct: host or cells: Sf9
T2 sequence (Q9Y233 267-1055): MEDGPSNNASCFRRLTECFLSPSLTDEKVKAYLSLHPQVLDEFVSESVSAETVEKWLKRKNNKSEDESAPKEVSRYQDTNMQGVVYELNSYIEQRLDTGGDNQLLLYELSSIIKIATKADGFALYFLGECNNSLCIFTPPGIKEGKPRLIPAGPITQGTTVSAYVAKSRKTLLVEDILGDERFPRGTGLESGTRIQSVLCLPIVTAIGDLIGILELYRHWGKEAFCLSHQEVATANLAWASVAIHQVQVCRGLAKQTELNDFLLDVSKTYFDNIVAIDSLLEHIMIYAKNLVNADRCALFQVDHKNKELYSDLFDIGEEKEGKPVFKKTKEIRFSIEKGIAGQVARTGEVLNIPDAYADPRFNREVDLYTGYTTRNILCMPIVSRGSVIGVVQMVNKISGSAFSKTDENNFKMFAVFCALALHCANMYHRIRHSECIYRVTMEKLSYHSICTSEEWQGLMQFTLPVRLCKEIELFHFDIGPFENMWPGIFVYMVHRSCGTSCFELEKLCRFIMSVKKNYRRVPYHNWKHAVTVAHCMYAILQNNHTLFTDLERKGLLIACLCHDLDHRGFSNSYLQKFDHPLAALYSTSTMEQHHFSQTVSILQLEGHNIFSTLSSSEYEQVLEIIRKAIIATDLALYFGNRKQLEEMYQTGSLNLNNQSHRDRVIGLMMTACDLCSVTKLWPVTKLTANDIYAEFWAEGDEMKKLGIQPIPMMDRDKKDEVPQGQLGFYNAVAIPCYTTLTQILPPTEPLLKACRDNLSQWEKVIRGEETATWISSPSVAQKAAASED
Description: The effects of the BL-230 and BL-236 compounds on the activity of the human enzymes PDE2A1, PDE3A, PDE4A1A, PDE4B1, PDE7A, PDE8A1, and PDE10A2 and PDE11A4 were quantified by measuring the production of adenosine 5′-monophosphate (5′AMP) from cyclic adenosine monophosphate (cAMP), with human recombinant enzyme expressed in Sf9 cells and the detection method was by using HTRF®.
The test compound, the reference compound or water (control) were mixed with the enzyme (the enzymes and their amounts used are described in Table 1) in a buffer containing 44.4 mM Tris-HCl, 5.28 mM MgCl2, 2.64 mM DTT and 0.044% Tween® 20 (pH 7.8). Then, the reaction was initiated by the addition of 40 nM of cAMP substrate and the mixture was incubated for 30 minutes at room temperature. For basal control measurements, the enzyme was omitted from the reaction mixture. The fluorescence acceptor (Dye2 labeled cAMP) and fluorescence donor (anti-cAMP antibody labeled with europium cryptate) were added in the presence of 1 mM IBMX. After 60 minutes, the fluorescence corresponding to the amount of transfer residual cAMP was measured at λex=337 nm, λem=620 nm and λem=665 nm using a microplate reader (RubyStar, BMG). The enzyme activity was determined by the signal division measured at 665 nm, by the measured signal at 620 nm (right). The results were expressed as a inhibition percentage of the control enzyme activity. […]

PDE5 = target: T3, PDE5 (Homo sapiens, UniProt O76074); test: PDE5 enzyme inhibition (SPA, enzyme isolated from human platelets); settings: FIGS. 14 and 15, test concentration not given
T3 construct: using an enzyme isolated from Cerep human platelets; tissue Cerep; host or cells: human platelets
Description: The effects of compounds BL-230 and BL-236 on human PDE5 enzyme activity was quantified by measuring the production of 5′GMP from cGMP using an enzyme isolated from Cerep human platelets and the utilized detection method was scintillation proximity assay (SPA).
The test compound, the reference compound or water (control) were added to a buffer containing 40 mM Tris-HCl (pH 7.8), 3 mM MgCl2, 1.4 mM DTT, 0.21% BSA, 200 mM ammonium chloride (NH4Cl), 1 μM cGMP and 0.1 μCi of [^3H]cGMP. Then the reaction was started by adding the enzyme (final amount depending on the efficiency of the isolation) and the mixture was incubated for 60 minutes at 22° C. For basal control measurements, the enzyme was omitted from the reaction mixture. Following this, the SPA incubation beads were added. After 20 min at 22° C. under agitation, the amount of [^3H] 5′GMP was quantified with a scintillation counter (Topcount, Packard). The results were expressed as an inhibition percentage of the control enzyme activity. The standard inhibitory reference compound dipyridamole was used, which was tested in each experiment at several concentrations to obtain an inhibition curve from which its IC50 value was calculated. […]

| inhibition of PDE1B enzyme activity (PDE1B) | inhibition of PDE10A2 enzyme activity (PDE10A2) | inhibition of PDE5 enzyme activity (PDE5) | SMILES |
| --- | --- | --- | --- |
| did not inhibit | 35% | 90% | O=C1C2=C(c3c[nH]c4ccccc34)OC(c3ccc4c(c3)OCO4)N2C(=O)CN1CCO (centres unmarked) [BL-230, 3-(benzo[d][1,3]dioxol-5yl)-7-(2-hydroxyethyl)-1-(1H-indol-3-yl)-6,7-dihydro-3H-oxazolo[3,4-a]pyrazine-5,8-dione] |
| did not inhibit |  | 86% | C[C@@H](CO)N1CC(=O)N2C(=C(c3c[nH]c4ccccc34)OC2c2ccc3c(c2)OCO3)C1=O (stereo partly drawn) [BL-236, 3-(benzo[d][1,3]dioxol-5yl)-7-((S)1-hydroxypropan-2yl)-1-(1H-indol-3-yl)-6,7-dihydro-3H-oxazolo[3,4-a]pyrazine-5,8-dione] |
